Here are results for three molecules from patent US12485134B2, “Use of nicotinamide riboside, nicotinic acid riboside, reduced nicotinyl riboside compounds, and nicotinyl riboside compound derivatives in formulations” (ChromaDex Inc., priority 2019, dated 2025).

Data set [1] in a line: Degradation tracking of 15N NR-Cl to 15N nicotinamide by 15N-1H HMBC and 1H NMR, with or without whey protein. In kind it is physicochemical. As for the experimental part:
A series of 1D ^1H and 1D ^15N-^1H HMBC experiments were collected on a 600 MHz Bruker instrument with 5-mm cryoprobe and using 5-mm NMR tubes. Each sample contains ˜10 mM ^15N isotope labeled NR-Cl (or non-isotope), in a solution containing ˜0.5 mL 90% H2O/10% ^2H2O buffered at pH values of 7.0 (5 mM PBS) and 9.0 (50 mM Glycine/Sodium hydroxide), with or without whey protein. The NMR tube was incubated at 25° C. and data collected at 1, 3 and 7 days. The NMR results provided evidence of binding to milk and soy protein and provided evidence of increased stability in combination with Whey protein at different pH over a 7 day time-course.
FIG. 22 highlights the corresponding ^1H-NMR data for the increased stability of the NR-Cl at day 7 under pH 7 and 9 buffered conditions, compared to control.
The integrations for the peaks corresponding to ^15N NR-Cl and ^15N nicotinamide were measured for the degradation that had occurred to ^15N—NR-Cl from Day 1 to Day 7. […] The half-life for ^15N NR-Cl in buffered pH 9 conditions- improved from 2.7 days (control) to 10 days in the presence of Whey protein.

Data set [2] relates to milk proteins. Description: WaterLOGSY NMR, direct binding of 15N-labeled NR to milk proteins. Conditions: no milk, 150 μL and 300 μL of milk. The text has this:
Whey protein fraction and casein protein have been identified as leading candidates to bind directly to and stabilize nicotinamide riboside (NR, I) in milk. The addition of these proteins in particular (either alone or in combination with other proteins and/or vitamins) in order to stabilize nicotinamide riboside (NR, I) in liquid constitutes another embodiment of a method of delivery of the present invention. […] In this experiment, Water-Ligand Observed via Gradient Spectroscopy (WaterLOGSY NMR) was used to detect direct binding of stable, isotope-labeled (^15N) nicotinamide riboside (NR, I) to milk proteins. This is visualized as a concentration-dependent shift in the nicotinamide riboside (NR, I) spectra with increasing additions of milk. The concentric shapes shifts from left to right are the results of addition of no milk, 150 μL of milk, and 300 μL of milk, respectively.

Data set [3] is described as follows: Recovery of NR added to store bought (cow) milk, HILIC/HPLC/UV. Conditions: cow's milk and human breast milk. In kind it is physicochemical. The method, then: Nicotinamide riboside (NR, I) is also naturally found in milk. […] FIGS. 2B and 2C are control chromatograms showing detection of nicotinamide riboside (NR, I) after adding nicotinamide riboside (NR, I) to the milk sample at a known amount. […] The calculated recovery of the 1% nicotinamide riboside (NR, I) was close to 100%. […] Centrifugation was then performed to remove any precipitate, and the supernatant was analyzed using an HILIC/HPLC/UV using standard methods.

In data set [4] the test system is milk concentrate proteins. Nature of the data set: WaterLOGSY NMR binding of NR-Cl. The following applies: milk concentrate, pH 7.0. As for the experimental part: (§1) WaterLOGSY is a sensitive ligand-observed NMR experiment designed for the screening of protein ligands from a mixture of potential binders. […] The experiment relies on fast dissociation of bound ligands to carry into the free state magnetisation originating from irradiated water that has been transmitted via the protein complex.
(§2) NMR samples for WaterLOGSY were prepared as follows. Ligand-detect WaterLOGSY experiments were carried at 600 MHz with 5-mm cryoprobe and using 5-mm NMR tubes. Each NMR sample for WaterLOGSY contained ˜0.05 mg (˜0.35 mM), using unlabeled ligand NR-Cl (“NR”), in a NMR buffer containing ˜0.5 mL 90% H2O/10% ^2H2O at pH 7.0 with or without the milk and soy protein mix (compared to the WaterLOGSY of NR as a negative control). Protein was added as a powder with a minimal 15 to 50 μM concentration. Typically, the final NMR sample of protein-compound mixtures had >20-fold higher compound concentration of ligand compared to that of the protein. Denatured samples were prepared by simply heating (80° C. for 15-20 mins) the aqueous (5-10% ^2H2O) protein mixture (in absence of NR).
The NR only WaterLOGSY spectrum (FIG. 23) was the negative control to screen for any potential binding of NR-Cl to milk concentrate and soy isolate proteins as shown herein and discussed below.

In data set [5] the test system is protein components of a meal replacement beverage. Description: WaterLOGSY NMR binding of NR-Cl. The following applies: meal replacement beverage containing soy protein isolate and milk protein concentrate. As for the experimental part:
as §1, §2
The beverage that was tested contained soy protein isolate and milk protein concentrate and it could only be either of these ingredients that could contribute to the positive result that was observed. […]

The conditions of data set [6]: mice on a high-fat diet supplemented with NR; cited from earlier work.
For data set [7], the system named is hydrolyzed whey protein isolate. Description: NR-Cl binding to hydrolyzed whey protein isolate (10 kDa cutoff filtration, unbound NR-Cl in filtrate by HPLC). The following applies: hydrolyzed whey protein isolate solutions, ambient and refrigerated. The method, then:
A. Solutions of hydrolyzed whey protein isolate (>90% protein, 2-7% degree of hydrolysis) were prepared at varying concentrations and filtered through 0.2 μm sterile filters. An aliquot of sterile nicotinamide riboside chloride (“NR-Cl,” a salt of NR, I) in water solution was spiked into the sterile whey solutions, targeting a final NR-Cl concentration of 1 mmol per liter (0.3 mg/mL). The solutions containing the mixture of hydrolyzed whey and NR-Cl were filtered through 10 kDa molecular weight cutoff centrifuge filters to remove the whey proteins (14-80 kDa) and any NR-Cl that was bound to the proteins. Any NR-Cl that was not bound to the whey proteins was recovered in the filtrate and quantitated by HPLC.
The solutions of hydrolyzed whey protein isolate and NR-Cl were stored at ambient and refrigerated conditions and analyzed at various timepoints for NR-Cl protein binding and stability.
A study measuring the stability of NR-Cl in hydrolyzed and non-hydrolyzed whey protein was conducted with 2 mmol/L NR-Cl (0.6 mg/mL) and 20 mg/mL protein (33.3:1 wt:wt protein:NR-Cl). […] (See Table 5).

In the case of `NC(=O)c1ccc[15n+]([C@@H]2O[C@H](CO)[C@@H](O)[C@H]2O)c1` [^15N NR-Cl, ^15N-labeled nicotinamide riboside chloride], the half-life in data set [1] (PBS buffer with whey protein, buffered pH 7, 25° C., in the presence of Whey protein) is 672 h; in data set [1] (PBS buffer without whey protein (control), buffered pH 7, 25° C., control (without Whey protein)), 81.6 h; in data set [1] (buffered pH 9, 25° C., control (without Whey protein)) it was 64.8 h; in data set [1] (glycine/sodium hydroxide buffer with whey protein, buffered pH 9, 25° C., in the presence of Whey protein) it was 240 h. Further, the “rate of degradation in the presence of Whey protein” value in data set [1] (pH 7.0 and 9.0, days 1, 3 and 7) was “slower than the control”.
Turning to `NC(=O)c1ccc[n+]([C@@H]2O[C@H](CO)[C@@H](O)[C@H]2O)c1` [NR, Nicotinamide riboside], the “direct binding to milk proteins (WaterLOGSY, concentration-dependent shift)” value in data set [2] is “binds to proteins in milk”. In addition, the stability in milk result in data set [3] is “stable in milk”. Moreover, the WaterLOGSY binding result is listed as “comparatively weaker binding” in data set [4] and “strongest evidence of NR binding” in data set [5]. In addition, in data set [6], the less weight gained is on record as 40%.
For `NC(=O)c1cccnc1` [nicotinamide], the binding to whey entry in data set [7] is reported as “not observed to bind”.
